In US12643903B2, “Bifunctional compounds for degradation of EGFR and related methods of use” (BeiGene, Ltd., priority 2020, dated 2026):

Key:
Format in all cases: cell-based
Conditions in all cases: 16 h treatment, EGFR degradation by HTRF
EGFR [1] = target: T1, EGFR (Homo sapiens, UniProt P00533, DEL746-750); experiment: Cell Degradation 2: EGFR degradation in HCC827 cells, HTRF assay
T1 construct: endogenous in cells; host or cells: HCC827
In short: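 DC50 values derive from four-parameter fits of percent inhibition versus concentration. The HTRF read-out (665/620 nm ratio, 337 nm excitation) followed 16 h compound exposure of HCC827 cells, 1 h lysis and overnight room-temperature incubation with the HTRF antibodies.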

EGFR [2] = target: T2, EGFR (Homo sapiens, UniProt P00533, L858R/T790M); experiment: Cell Degradation 1: EGFR degradation in H1975 cells, HTRF assay
T2 construct: endogenous in cells; host or cells: H1975
T2 sequence (P00533 25-1210 T790M/L858R): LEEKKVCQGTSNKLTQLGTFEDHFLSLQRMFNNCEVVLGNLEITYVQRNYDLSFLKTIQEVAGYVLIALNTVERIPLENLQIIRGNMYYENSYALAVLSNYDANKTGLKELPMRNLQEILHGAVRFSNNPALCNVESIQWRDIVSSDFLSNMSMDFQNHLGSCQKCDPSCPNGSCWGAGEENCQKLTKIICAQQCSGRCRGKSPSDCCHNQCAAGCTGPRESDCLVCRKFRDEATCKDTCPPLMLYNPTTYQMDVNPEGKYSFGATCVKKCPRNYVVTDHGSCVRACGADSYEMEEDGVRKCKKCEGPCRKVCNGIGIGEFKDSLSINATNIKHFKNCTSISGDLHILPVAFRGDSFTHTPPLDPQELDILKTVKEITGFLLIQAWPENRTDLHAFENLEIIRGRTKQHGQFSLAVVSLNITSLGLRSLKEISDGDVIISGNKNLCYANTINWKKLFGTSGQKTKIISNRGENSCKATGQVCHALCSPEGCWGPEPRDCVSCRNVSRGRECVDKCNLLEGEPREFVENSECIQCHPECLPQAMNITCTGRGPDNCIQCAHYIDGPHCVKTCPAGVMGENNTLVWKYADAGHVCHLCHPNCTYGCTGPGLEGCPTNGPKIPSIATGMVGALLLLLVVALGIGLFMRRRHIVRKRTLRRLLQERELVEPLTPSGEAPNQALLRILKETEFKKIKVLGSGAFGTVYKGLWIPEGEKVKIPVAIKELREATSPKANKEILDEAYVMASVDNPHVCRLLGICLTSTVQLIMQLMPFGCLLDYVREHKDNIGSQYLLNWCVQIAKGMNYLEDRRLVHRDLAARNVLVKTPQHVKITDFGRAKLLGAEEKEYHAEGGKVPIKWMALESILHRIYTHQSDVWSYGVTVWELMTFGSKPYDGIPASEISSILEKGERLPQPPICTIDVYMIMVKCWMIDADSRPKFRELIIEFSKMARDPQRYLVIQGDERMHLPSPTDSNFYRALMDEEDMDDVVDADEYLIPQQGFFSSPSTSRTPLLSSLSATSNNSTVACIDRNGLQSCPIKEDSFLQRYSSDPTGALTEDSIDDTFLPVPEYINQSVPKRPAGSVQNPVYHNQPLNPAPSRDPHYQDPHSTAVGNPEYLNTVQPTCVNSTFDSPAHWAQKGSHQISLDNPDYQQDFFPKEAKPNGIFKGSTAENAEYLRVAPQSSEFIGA
In short: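 EGFR levels were read by HTRF (337 nm excitation, 665 and 620 nm emission) in lysates of H1975 cells exposed to compound for 16 h, with antibodies incubated overnight at room temperature. Fitting percent inhibition versus concentration to a Hill equation gave DC50.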

EGFR DTC = experiment: Cell Degradation 3: EGFR degradation in BaF3 cells (DTC), HTRF assay
Experimental: (§1) Cell Degradation 3 Cell Treatment
(§2) BaF3 cells are treated with compounds diluted in 0.2% DMSO, dilution is done according to the following protocol: (1) make 500× stock solution in DMSO from 5 mM by 4-fold dilution, total 8 doses were included; (2) make 2× solution in cell culture medium by transferring 0.5 μl 500× stock solution into 125 μl medium; (3) 30 μl of 2× solution is added to cells and incubate for 16 h.
(§3) After 16 h treatment, add 20 μl 4×lysis buffer to each well; seal the plate and incubate 1 hour at room temperature on a plate shaker; Once the cells are lysed, 16 μL of cell lysate are transferred to a PE 384-well HTRF detection plate (for triple mutant cells, the lysate were diluted by the qual volume 1×lysis buffer before transfer); 4 μL of pre-mixed HTRF antibodies are added to each well; Cover the plate with a plate sealer, spin 1000 rpm for 1 min, Incubate overnight at room temperature; Read on BMG PheraStar with HTRF protocol (337 nm-665 nm-620 nm).
(§4) The IC50 (DC50) value of a compound can be obtained by fitting the following equation Y=Bottom+(TOP−Bottom)/(1+((IC50/X)^hillslope))
(§5) Wherein, X and Y are known values, and IC50, Hillslope, Top and Bottom are the parameters obtained by fitting with software. Y is the inhibition percentage (calculated from the equation), X is the concentration of the compound; IC50 is the concentration of the compound when the 50% inhibition is reached. The smaller the IC50 value is, the stronger the inhibitory ability of the compound is. Vice versa, the higher the IC50 value is, the weaker the ability the inhibitory ability of the compound is; Hillslope represents the slope of the fitted curve, generally around 1*; Bottom represents the minimum value of the curve obtained by data fitting, which is generally 0%±20%; Top represents the maximum value of the curve obtained by data fitting, which is generally 100%±20%. The experimental data were fitted by calculating and analyzing with Dotmatics data analysis software.

EGFR LTC = target: T3, EGFR LTC (Homo sapiens, UniProt P00533, C797S/L858R/T790M); experiment: Cell Degradation 3: EGFR degradation in BaF3 cells (LTC), HTRF assay
T3 construct: expressed in transfected cells; host or cells: BaF3
T3 sequence (P00533 25-1210 T790M/C797S/L858R): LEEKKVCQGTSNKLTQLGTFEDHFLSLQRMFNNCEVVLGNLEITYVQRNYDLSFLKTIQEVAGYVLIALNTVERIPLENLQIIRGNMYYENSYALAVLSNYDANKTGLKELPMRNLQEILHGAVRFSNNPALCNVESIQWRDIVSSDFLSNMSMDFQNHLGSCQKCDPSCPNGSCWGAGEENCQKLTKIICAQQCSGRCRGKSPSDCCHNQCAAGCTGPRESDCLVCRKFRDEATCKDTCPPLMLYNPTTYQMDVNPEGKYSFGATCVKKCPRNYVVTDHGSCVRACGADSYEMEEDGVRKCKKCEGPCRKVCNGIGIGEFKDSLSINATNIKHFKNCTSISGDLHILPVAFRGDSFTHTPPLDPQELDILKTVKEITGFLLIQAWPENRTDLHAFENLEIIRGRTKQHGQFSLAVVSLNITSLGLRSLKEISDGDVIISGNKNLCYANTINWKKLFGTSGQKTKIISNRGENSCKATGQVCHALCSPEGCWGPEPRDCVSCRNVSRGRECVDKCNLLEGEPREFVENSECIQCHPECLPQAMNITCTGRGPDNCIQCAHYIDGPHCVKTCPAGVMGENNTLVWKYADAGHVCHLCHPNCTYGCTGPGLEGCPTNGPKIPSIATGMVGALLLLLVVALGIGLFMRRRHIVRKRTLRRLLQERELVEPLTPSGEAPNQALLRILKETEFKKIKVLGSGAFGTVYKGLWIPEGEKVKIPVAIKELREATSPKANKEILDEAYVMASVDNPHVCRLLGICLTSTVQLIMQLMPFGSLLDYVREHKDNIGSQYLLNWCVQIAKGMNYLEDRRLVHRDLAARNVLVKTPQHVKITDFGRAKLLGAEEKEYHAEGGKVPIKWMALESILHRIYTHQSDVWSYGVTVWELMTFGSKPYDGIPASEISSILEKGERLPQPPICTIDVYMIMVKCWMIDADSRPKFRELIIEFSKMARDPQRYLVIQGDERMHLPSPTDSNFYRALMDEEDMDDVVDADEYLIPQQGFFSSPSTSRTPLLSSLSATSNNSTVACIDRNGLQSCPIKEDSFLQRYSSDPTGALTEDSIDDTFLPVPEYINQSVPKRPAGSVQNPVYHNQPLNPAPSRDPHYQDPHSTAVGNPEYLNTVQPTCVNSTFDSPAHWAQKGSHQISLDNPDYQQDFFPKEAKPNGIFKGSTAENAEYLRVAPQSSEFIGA
Experimental: as §1, §2, §3, §4, §5

T1 sequence (P00533 with tags, fused parts or gaps DEL746-750): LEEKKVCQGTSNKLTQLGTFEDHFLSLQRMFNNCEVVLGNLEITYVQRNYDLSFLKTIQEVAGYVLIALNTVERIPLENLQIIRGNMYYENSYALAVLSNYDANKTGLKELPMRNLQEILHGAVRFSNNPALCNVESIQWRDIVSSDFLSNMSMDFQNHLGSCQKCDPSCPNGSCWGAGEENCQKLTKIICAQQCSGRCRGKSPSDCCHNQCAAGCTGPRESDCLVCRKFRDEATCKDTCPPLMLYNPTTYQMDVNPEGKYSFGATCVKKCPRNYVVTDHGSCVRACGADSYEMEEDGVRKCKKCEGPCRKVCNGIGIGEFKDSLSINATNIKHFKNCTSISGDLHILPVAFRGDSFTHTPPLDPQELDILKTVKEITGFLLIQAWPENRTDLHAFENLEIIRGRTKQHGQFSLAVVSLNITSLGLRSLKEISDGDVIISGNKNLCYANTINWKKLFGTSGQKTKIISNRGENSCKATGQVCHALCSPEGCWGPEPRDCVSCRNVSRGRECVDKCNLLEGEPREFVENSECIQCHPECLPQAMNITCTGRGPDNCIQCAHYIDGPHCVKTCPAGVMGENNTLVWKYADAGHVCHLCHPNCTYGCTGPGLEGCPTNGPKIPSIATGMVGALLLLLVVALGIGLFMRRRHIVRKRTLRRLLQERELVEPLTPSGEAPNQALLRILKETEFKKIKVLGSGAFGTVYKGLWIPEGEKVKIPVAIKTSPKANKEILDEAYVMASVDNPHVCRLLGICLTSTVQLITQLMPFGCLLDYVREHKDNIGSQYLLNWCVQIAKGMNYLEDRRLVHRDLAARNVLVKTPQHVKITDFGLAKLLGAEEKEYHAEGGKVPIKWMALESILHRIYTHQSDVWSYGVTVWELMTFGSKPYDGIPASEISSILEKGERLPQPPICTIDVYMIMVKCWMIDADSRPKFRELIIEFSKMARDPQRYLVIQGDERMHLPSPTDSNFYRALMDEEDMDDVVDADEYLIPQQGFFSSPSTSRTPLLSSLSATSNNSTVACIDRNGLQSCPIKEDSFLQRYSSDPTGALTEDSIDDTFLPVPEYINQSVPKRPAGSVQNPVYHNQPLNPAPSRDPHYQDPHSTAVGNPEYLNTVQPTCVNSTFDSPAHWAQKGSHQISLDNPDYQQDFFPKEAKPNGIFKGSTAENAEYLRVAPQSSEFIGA
T1 sequence (Q96SW2 whole entry partner): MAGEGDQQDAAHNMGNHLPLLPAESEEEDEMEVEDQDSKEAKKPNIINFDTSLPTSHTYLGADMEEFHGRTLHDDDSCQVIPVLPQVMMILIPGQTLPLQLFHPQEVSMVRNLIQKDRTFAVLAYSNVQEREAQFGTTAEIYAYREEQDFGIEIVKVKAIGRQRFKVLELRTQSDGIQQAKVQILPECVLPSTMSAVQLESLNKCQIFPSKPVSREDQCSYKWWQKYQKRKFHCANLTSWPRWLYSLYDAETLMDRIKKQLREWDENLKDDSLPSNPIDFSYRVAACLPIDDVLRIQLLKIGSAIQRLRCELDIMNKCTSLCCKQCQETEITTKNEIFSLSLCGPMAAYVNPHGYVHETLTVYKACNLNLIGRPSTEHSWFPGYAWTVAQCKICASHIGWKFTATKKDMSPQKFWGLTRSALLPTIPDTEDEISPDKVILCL

Row | Structure (SMILES) | DC50 (EGFR LTC) | also measured
1 | COc1cc(N2CCC(N3CCN(CCC4CCN(c5ccc(C6CCC(=O)NC6=O)c(F)c5)CC4)CC3)CC2)c(C)cc1Nc1ncc(Br)c(Nc2cccc3c2N(S(C)(=O)=O)CC3)n1 (centres unmarked) [Example 90, 3-(4-(4-(2-(4-(1-(4-((5-bromo-4-((1-(methylsulfonyl)indolin-7-yl)amino)pyrimidin-2-yl)amino)-5-methoxy-2-methylphenyl)piperidin-4-yl)piperazin-1-yl)ethyl)piperidin-1-yl)-2-fluorophenyl)piperidine-2,6-dione] |  | DC50 (EGFR [1]): 40.2 nM; DC50 (EGFR [2]): 96.4 nM
2 | COc1cc(N2CCC(N3CCN(CC4CN(c5ccc6c(c5)C(=O)N(C5CCC(=O)NC5=O)C6=O)C4)CC3)CC2)c(C)cc1Nc1ncc(Br)c(Nc2cccc3c2N(S(C)(=O)=O)CC3)n1 (centres unmarked) [Example 151, 5-(3-((4-(1-(4-((5-bromo-4-((1-(methylsulfonyl)indolin-7-yl)amino)pyrimidin-2-yl)amino)-5-methoxy-2-methylphenyl)piperidin-4-yl)piperazin-1-yl)methyl)azetidin-1-yl)-2-(2,6-dioxopiperidin-3-yl)isoindoline-1,3-dione] | 17 nM | DC50 (EGFR DTC): 14 nM
3 | COc1cc(N2CCC(N3CCN(CCc4ccc(NC5CCC(=O)NC5=O)cc4)CC3)CC2)c(C)cc1Nc1ncc(Br)c(Nc2cccc3c2N(S(C)(=O)=O)CC3)n1 (centres unmarked) [Example 152, 3-((4-(2-(4-(1-(4-((5-bromo-4-((1-(methylsulfonyl)indolin-7-yl)amino)pyrimidin-2-yl)amino)-5-methoxy-2-methylphenyl)piperidin-4-yl)piperazin-1-yl)ethyl)phenyl)amino)piperidine-2,6-dione] | 27 nM | DC50 (EGFR DTC): 66 nM
4 | COc1cc(N2CCC(N3CCN(CCc4cc(F)c(C5CCC(=O)NC5=O)cc4F)CC3)CC2)c(C)cc1Nc1ncc(Br)c(Nc2cccc3c2N(S(C)(=O)=O)CC3)n1 (centres unmarked) [Example 155, 3-(4-(2-(4-(1-(4-((5-bromo-4-((1-(methylsulfonyl)indolin-7-yl)amino)pyrimidin-2-yl)amino)-5-methoxy-2-methylphenyl)piperidin-4-yl)piperazin-1-yl)ethyl)-2,5-difluorophenyl)piperidine-2,6-dione] | 56 nM | DC50 (EGFR DTC): 19 nM
5 | CCc1cc(Nc2ncc(Br)c(Nc3ccc(CC)c4c3N(S(C)(=O)=O)CC4)n2)c(OC)cc1N1CCC(N2CCN(CCc3cc(F)c(C4CCC(=O)NC4=O)c(F)c3)CC2)CC1 (centres unmarked) [Example 192, 3-(4-(2-(4-(1-(4-((5-bromo-4-((4-ethyl-1-(methylsulfonyl)indolin-7-yl)amino)pyrimidin-2-yl)amino)-2-ethyl-5-methoxyphenyl)piperidin-4-yl)piperazin-1-yl)ethyl)-2,6-difluorophenyl)piperidine-2,6-dione] | 65 nM | 
6 | CCc1cc(Nc2ncc(Br)c(Nc3ccc(C4CC4)c4c3N(S(C)(=O)=O)CC4)n2)c(OC)cc1N1CCC(N2CCN(CCc3cc(F)c(C4CCC(=O)NC4=O)c(F)c3)CC2)CC1 (centres unmarked) [Example 193, 3-(4-(2-(4-(1-(4-((5-bromo-4-((4-cyclopropyl-1-(methylsulfonyl)indolin-7-yl)amino)pyrimidin-2-yl)amino)-2-ethyl-5-methoxyphenyl)piperidin-4-yl)piperazin-1-yl)ethyl)-2,6-difluorophenyl)piperidine-2,6-dione] | 74 nM | 
7 | CCc1cc(Nc2ncc(Br)c(Nc3ccc(F)c4c3N(S(C)(=O)=O)CC4)n2)c(OC)cc1N1CCC(N2CCN(C(=O)[C@@H]3CCN(c4cc(F)c([C@H]5CCC(=O)NC5=O)c(F)c4)C3)CC2)CC1 [Example 194, (R)-3-(4-((R)-3-(4-(1-(4-((5-bromo-4-((4-fluoro-1-(methylsulfonyl)indolin-7-yl)amino)pyrimidin-2-yl)amino)-2-ethyl-5-methoxyphenyl)piperidin-4-yl)piperazine-1-carbonyl)pyrrolidin-1-yl)-2,6-difluorophenyl)piperidine-2,6-dione] | 29 nM | 
8 | CCc1cc(Nc2ncc(Br)c(Nc3ccc(F)c4c3N(S(C)(=O)=O)CC4)n2)c(OC)cc1N1CCC(N2CCN(CCc3cc(F)c([C@H]4CCC(=O)NC4=O)c(F)c3)CC2)CC1 [Example 195, (R)-3-(4-(2-(4-(1-(4-((5-bromo-4-((4-fluoro-1-(methylsulfonyl)indolin-7-yl)amino)pyrimidin-2-yl)amino)-2-ethyl-5-methoxyphenyl)piperidin-4-yl)piperazin-1-yl)ethyl)-2,6-difluorophenyl)piperidine-2,6-dione] | 24 nM | 
9 | CCc1cc(Nc2ncc(Br)c(Nc3ccc(C(F)(F)F)c4c3N(S(C)(=O)=O)CC4)n2)c(OC)cc1N1CCC(N2CCN(C(=O)C3CN(c4cc(F)c([C@H]5CCC(=O)NC5=O)c(F)c4)C3)CC2)CC1 [Example 196, (R)-3-(4-(3-(4-(1-(4-((5-bromo-4-((1-(methylsulfonyl)-4-(trifluoromethyl)indolin-7-yl)amino)pyrimidin-2-yl)amino)-2-ethyl-5-methoxyphenyl)piperidin-4-yl)piperazine-1-carbonyl)azetidin-1-yl)-2,6-difluorophenyl)piperidine-2,6-dione] | 71 nM | 
10 | CCc1cc(Nc2ncc(Br)c(Nc3ccc(C(F)(F)F)c4c3N(S(C)(=O)=O)CC4)n2)c(OC)cc1N1CCC(N2CCN(C(=O)[C@@H]3CCN(c4cc(F)c([C@H]5CCC(=O)NC5=O)c(F)c4)C3)CC2)CC1 [Example 197, (R)-3-(4-((R)-3-(4-(1-(4-((5-bromo-4-((1-(methylsulfonyl)-4-(trifluoromethyl)indolin-7-yl)amino)pyrimidin-2-yl)amino)-2-ethyl-5-methoxyphenyl)piperidin-4-yl)piperazine-1-carbonyl)pyrrolidin-1-yl)-2,6-difluorophenyl)piperidine-2,6-dione] | 83 nM | 
11 | CCc1cc(Nc2ncc(Br)c(Nc3ccc(CC)c4c3N(S(C)(=O)=O)CC4)n2)c(OC)cc1N1CCC(N2CCN(C(=O)[C@@H]3CCN(c4cc(F)c([C@H]5CCC(=O)NC5=O)c(F)c4)C3)CC2)CC1 [Example 198, (R)-3-(4-((R)-3-(4-(1-(4-((5-bromo-4-((4-ethyl-1-(methylsulfonyl)indolin-7-yl)amino)pyrimidin-2-yl)amino)-2-ethyl-5-methoxyphenyl)piperidin-4-yl)piperazine-1-carbonyl)pyrrolidin-1-yl)-2,6-difluorophenyl)piperidine-2,6-dione] | 34 nM | 
12 | CCc1cc(Nc2ncc(Br)c(Nc3ccc(N(C)C)c4c3N(S(C)(=O)=O)CC4)n2)c(OC)cc1N1CCC(N2CCN(CCc3cc(F)c([C@H]4CCC(=O)NC4=O)c(F)c3)CC2)CC1 [Example 200, (R)-3-(4-(2-(4-(1-(4-((5-bromo-4-((4-(dimethylamino)-1-(methylsulfonyl)indolin-7-yl)amino)pyrimidin-2-yl)amino)-2-ethyl-5-methoxyphenyl)piperidin-4-yl)piperazin-1-yl)ethyl)-2,6-difluorophenyl)piperidine-2,6-dione] | 513 nM | 
13 | CCOc1cc(N2CCC(N3CCN(CCc4cc(F)c([C@H]5CCC(=O)NC5=O)c(F)c4)CC3)CC2)c(CC)cc1Nc1ncc(Br)c(Nc2ccc(CC)c3c2N(S(C)(=O)=O)CC3)n1 [Example 203, (R)-3-(4-(2-(4-(1-(4-((5-bromo-4-((4-ethyl-1-(methylsulfonyl)indolin-7-yl)amino)pyrimidin-2-yl)amino)-5-ethoxy-2-ethylphenyl)piperidin-4-yl)piperazin-1-yl)ethyl)-2,6-difluorophenyl)piperidine-2,6-dione] | 83 nM | 
